Counter-ions that a name gives are not always drawn.
Tests used:
[1] = system: cell cycle-related genes in A549 cells; experiment: Cell Cycle RT2 Profiler PCR Array in A549 cells; assay type: cell-based, human; conditions: doxorubicin 1 μM or T12 50 μM, 24 h
Description: FIG. 6. T12 and doxorubicin activate cell cycle-related genes in a similar fashion. A549 cells were treated doxorubicin (1 μM) or T12 (50 μM) for 24 h. Total RNA was purified, reverse-transcribed and subjected to Cell Cycle RT^2 Profiler PCR Array. A, shown are logarithmic scatter plots of relative mRNA levels of treated vs untreated cells. […] B, shown are bar plots of the relative expression (RQ) of the over-expressed genes indicated in A. Results are shown in fold expression respect to untreated cells.
RNA was purified from cells using the Ilustra RNAspin Mini (GE Healthcare) and the cDNA was prepared using RT^2 First Strand™ cDNA kit (Qiagen). The cDNA from treated or untreated cells was used to screen the Cell Cycle RT^2 Profiler™ PCR Array for human (PAHS-020Z, Qiagen), following manufacturer's procedures (Qiagen). qPCR was performed using RT^2 SYBR® Green ROX™ qPCR Mastermix (Qiagen) and the StepOnePlus™ Real-Time PCR System (Applied Biosystems). qPCR data were analyzed using manufacturer software.

[2] = system: JLSM cells; experiment: Cell viability of JLSM primary cultures (lung epidermoid carcinoma); assay type: cell-based, human; conditions: 36 h
Description: FIG. 14. T12 sharply reduce JLSM cell viability. A and B, JLSM cells were seeded (10.000 cells per cm^2) on collagen-I coated 96-well culture plate. Cells were settled for 4 h and subjected to the indicated treatments and cellular viability assayed after 36 h. Control bars represent cells without T12 or […]. JLSM cells were obtained from a human lung epidermoid carcinoma biopsy following standard procedures. […] Subsequently, explants were further incubated with 1 mL per well of serum-free B-ALITM air-liquid interface medium from CloneticsTM (B-ALI medium). When cells started to grow, explants were removed and cells passed to a collagen I coated flask with fresh medium. Cultures were kept in a humidified 37° C. incubator with 5% (v/v) CO2 and 95% (v/v) air. Cytotoxicity assays were performed with alamarBlue® reagent (Invitrogen) according to manufacturer's instructions. A549 cells were seeded on 96-well culture plates (7,500 cells/well) and allowed to settle during 4 h. Then, cells were cultured with individual peptidomimetics at concentrations ranging from 0 to 50 μM, in presence of doxorubicin at concentrations ranging from 0 to 10 μM for 36 h. […] Fluorescence was measured using 560EX nm/590EM nm filter settings with a SpectraMax […] […] Blank wells containing media were used to determine background fluorescence.

[3] = system: A549 cells; experiment: Migration assay in modified Boyden chambers; assay type: cell-based, human; conditions: 16 h
Description: FIG. 8. T12 inhibits cancer cell migration. A modified Boyden chamber was used to measure migration as described in Methods and Experimental Design. Doxorubicin was used at 1 μM and T12 at 50 μM.
Migration assays were performed using modified Boyden chambers (Transwell inserts, 6.5 mm diameter; Corning). Inserts containing polycarbonate membranes with 8 μm pores were placed into the lower chambers containing 400 μl media (DMEM:F-12 supplemented with 10% FBS, 1% penicillin-streptomycin and 2 mM glutamine). Serum-starved A549 cells were removed from culture dishes with Hanks' balanced salt solution containing 0.5% trypsin and 0.2% EDTA (Sigma), washed and suspended in media without serum (DMEM:F-12, 1% penicillin-streptomycin and 2 mM glutamine) at 10^6 cells/mL. Two-hundred fifty thousand (250,000) cells in 250 μL media without serum were added to the top of each migration chamber and allowed to migrate to the underside of the porous membrane for 16 h. T12 and doxorubicin were present in the media of both top and bottom compartments throughout the assay. […] The detached cells were labeled with Calcein AM Fluorescent Dye (4 μg/ml) for 90 min at 37° C. and the fluorescence was measured at 494/517 nm (Abs/Em).

[4] = system: A549 cells; experiment: T12 LC50 in A549 cells cultured without serum to expand the CSC/SP compartment; assay type: cell-based; conditions: Homo sapiens
Description: FIG. 16. GPBP is over-expressed in A549 cells grown in B-ALI media that allows CSC/SP expansion. Bars represent the relative expression of the indicated genes in A549 cells grown with the indicated culture medium during the indicated times. A549 cells grown in DMEM: Ham's F12 medium supplemented with 2 mM L-glutamine and 10% fetal bovine serum (day 0) were used as reference.
Chemoresistance is widely accepted to depend on epigenetic changes occurring at the CSC/SP compartment (Alberts et al. 2007). Accordingly GPBP-mediated doxorubicin resistance is expected to occur on CSC/SP compartment. To test this we cultured A549 cells in the absence of serum using culture conditions known to expand CSC/SP compartment.

[5] = system: A549 cells (CSC/SP and CTAC/MP compartments); experiment: Doxorubicin content of A549 cells by flow cytometry; assay type: cell-based, human; conditions: doxorubicin 1 μM plus T12 50 μM
Description: FIG. 10. T12 enhances doxorubicin accumulation, preferentially in CSC/SP cells. A549 cultures were untreated (control) or treated with doxorubicin (1 μM) and/or T12 (50 μM). A, doxorubicin content was measured by flow cytometry using the PE channel. Represented are fluorescence intensity values. The increased amount of doxorubicin is evidenced by the rightwards displacement of the fluorescence peak. B, CSC/SP and CTAC/MP compartments were identified as in FIG. 9 and the doxorubicin content of cells was determined as in A.
A549 cells were suspended at 10^6 cells/mL in culture medium containing 10 mM Hepes (previously warmed at 37° C.). Hoechst 33342 was added at 5 μg/mL and cells incubated in a 37° C. bath with shaking for 90 min in the dark. Before incubation (and after staining) an aliquot of 1 mL was taken and verapamil (50 μM) and fumitremorgin C (10 μM) added. Cells were centrifuged at 300×g for 5 min at 4° C. and suspended in cold medium with 10 mM Hepes. Cells were kept at 4° C. until analysis. Analysis of Hoechst 33342 efflux was assessed using a Flow Cytometer with incident 350 nm ultraviolet light. The resulting fluorescence was measured at two wavelengths using 424/44 BP and 675 LP filters that allow detection of Hoechst blue and red, respectively. […] Doxorubicin content in either population was estimated with incident 488 nm blue light and 585/40 filter. […]

Row | Compound | expression of CDKN1A (p21), GADD45A, MDM2 and SERTAD1 [1] | biological activity on JLSM primary cultures, single compound [2] | cell migration of A549 cells, T12 with additional doxorubicin ([3]; T12 50 μM plus doxorubicin 1 μM) | cell migration of A549 cells ([3]; T12 50 μM) | CC50 ([4]; A549, A549 comparison culture (CSC/SP not expanded)) [µM] | CC50 ([4]; A549, A549 cultured in the absence of serum, expanded CSC/SP compartment) [µM] | doxorubicin content of cells versus doxorubicin only [5]
1 | COc1cccc2c1C(=O)c1c(O)c3c(c(O)c1C2=O)C[C@@](O)(C(=O)CO)C[C@@H]3O[C@H]1C[C@H](N)[C@H](O)[C@H](C)O1 [doxorubicin, doxorubicin hydrochloride, reference compound] | up-regulated | virtually resistant | – | – | – | – | –
2 | COc1ccc(-c2ccc(-c3cccc(C)c3)c(C)c2)c(CCC(=O)O)c1 [T12, 3-[4″-methoxy-3,2′-dimethyl-(1,1′;4′,1″)terphenyl-2″-yl] propionic acid] | up-regulated | highly sensitive | virtually arrested | sharply inhibited | 125 | 15 | higher doxorubicin content
